# Data reported in patent US10894941B2, “Microfluidic multi-well-based cell culture testing device” (QUANTA MATRIX CO,. LTD., priority 2013, dated 2021).
# How the values were obtained:
# Type in all cases: cell-based
# E. faecalis strain = assay: antibiotic susceptibility testing (MIC) using the MAC chip; conditions: agarose, 37° C., 4-h incubation
# Protocol: For this experiment, an E. faecalis solution was homogenized with liquid agarose and was injected into the chip. The agarose was gelled at room temperature. Thereafter, liquid penicillin as an antibiotic was injected into the well spaces. The chip was then incubated at an incubator at 37° C. and the results were observed after 4-h incubation.
# The MIC of penicillin (2 μg/ml) could be obtained in 4 hours. In contrast, according to micro-dilution testing (MDT), a much longer time (18 hours) was consumed to obtain the MIC of penicillin.
# E. coli ATCC 25922 = assay: double infection imaging in MAC chip, antibiotic susceptibility; conditions: gentamicin 32 μg/mL, erythromycin 8 μg/mL; 3 h incubation; 2% agarose
# Protocol: (§1) The experimental conditions are as follows: • Strains • E. coli ATCC 25922 (rod-shaped strain) • E. faecalis ATCC 29212 (spherical strain) • Antibiotics • Gentamicin (concentration: 32 μg/mL)
# (§2) […] At this time, the coexistence of the rod-shaped bacteria and the spherical bacteria was confirmed. It could also be confirmed whether double infection with the bacteria occurred.
# E. faecalis ATCC 29212 = assay: as above; conditions: gentamicin 32 μg/mL, erythromycin 8 μg/mL; 3 h incubation; 2% agarose
# Protocol: as §1, §2
Molecule,MIC (E. faecalis strain) [µg/mL],susceptibility (E. coli ATCC 25922),susceptibility (E. faecalis ATCC 29212)
penicillin,2,–,–
CC[C@H]1OC(=O)[C@H](C)[C@@H](O[C@H]2C[C@@](C)(OC)[C@@H](O)[C@H](C)O2)[C@H](C)[C@@H](O[C@@H]2O[C@H](C)C[C@H](N(C)C)[C@H]2O)[C@](C)(O)C[C@@H](C)C(=O)[C@H](C)[C@@H](O)[C@]1(C)O [Erythromycin],–,Susceptible to E. faecalis ATCC 29212 only,Susceptible to E. faecalis ATCC 29212 only
Gentamicin,–,MICs are in the susceptible range for both strains,MICs are in the susceptible range for both strains
